Reference: patent publication US12644133B2, “Methods and compositions to increase somatic cell nuclear transfer (SCNT) efficiency by removing histone H3-lysine trimethylation” (The Children's Medical Center Corporation, priority 2014, dated 2026)

How the values were obtained:
[1] = tested on: SCNT embryos transferred to pseudopregnant ICR females; experiment: In vivo development of 2-cell SCNT embryos after embryo transfer (caesarian section at E19.5); design: species or system mouse; conditions: for Body weight at birth (g ± SD) / Placenta weight at birth (g ± SD) / No. of implanted / No. of pups / implanted (% per ET) / pups (% per ET): Kdm4d mRNA 1800 ng/μl
From the text: Two-cell stage embryos generated by SCNT or in vitro fertilization were transferred to the oviducts of pseudopregnant (E0.5) ICR females. The pups were recovered by caesarian section on the day of delivery (E19.5) and nursed by lactating ICR females.

H3K9me3 = experiment: Immunostaining of H3K9me3 in SCNT embryos; format: cell-based, mouse; conditions: mRNA injected at 5 hpa; cumulus donor cells
Method: Somatic cell nuclear transfer was carried out as described previously (Matoba et al., 2011). Briefly, recipient MII oocytes were collected from superovulated adult BDF1 females by brief treatment with 300 U/ml bovine testicular hyaluronidase (Calbiochem). Isolated MII oocytes were enucleated in Hepes-buffered KSOM medium containing 7.5 μg/ml of cytochalasin B (Calbiochem #250233). The nuclei of donor cumulus cells or Sertoli cells were injected into the enucleated oocytes using a Piezo-driven micromanipulator (Primetech #PMM-150FU). MEF cells were fused with enucleated oocytes by inactivated Sendai virus envelope (HVJ-E; Ishihara Sangyo, Japan). After 1 h incubation in KSOM, reconstructed SCNT oocytes were activated by incubation in Ca-free KSOM containing 5 μg/ml cytochalasin B for 1 h and further cultured in KSOM with cytochalasin B for 4 h. Activated SCNT embryos were washed 5 h after the onset of SrCl2 treatment (hours post activation, hpa) and cultured in KSOM in a humidified atmosphere of 5% CO2 at 37.8° C. In some experiments, SCNT embryos were injected with ˜10 pl of water (control), 1800 ng/μl wild-type or mutant (H189A) Kdm4d mRNA at 5-6 hpa by using a Piezo-driven micromanipulator (Primetech). […] Preimplantation developmental rates were statistically analyzed by Student's T-test. […]

[2] = tested on: reprogramming resistant regions (RRRs); experiment: RNA-seq analysis of 2-cell SCNT embryos; format: cell-based, mouse
Method: The embryos were directly lysed and used for cDNA synthesis using SMARTer Ultra Low Input RNA cDNA preparation kit (Clontech). After amplification, the cDNA samples were fragmented using Covaris sonicator (Covaris). Sequencing libraries were made with the fragmented DNA using NEBNext Ultra DNA Library Prep Kit for Illumina according to manufacturer's instruction (New England Biolabs). Single end 50 bp sequencing was performed on a HiSeq 2500 sequencer (Illumina). Sequencing reads were mapped to the mouse genome (mm9) with NovoalignV3.02.00. All programs were performed with default settings (unless otherwise specified). Uniquely mapped reads (about 70% of total reads) were subsequently assembled into transcripts guided by the reference annotation (UCSC gene models) with Cufflinks v2.0.2. Expression level of each gene was quantified with normalized FPKM (fragments per kilobase of exon per million mapped fragments). […] Statistical analyses were implemented with R (world wide web at www.r-project.org/). Independent 2-group Wilcoxon rank sum test were used to compare distributions using the wilcox.test function in R. Pearson's r coefficient was calculated using the cor function with default parameters. The hierarchical clustering analysis of the global gene expression pattern in different samples was carried out using hearmap.2 function (gplots package) in R.
A sliding window (size 100 kb, step size 20 kb) was used to assess the genome-wide expression level of 1-cell and 2-cell embryos. For each window, the expression level was quantified with normalized RPM (reads per millions of uniquely mapped reads). […] These activated regions were classed into three groups based on their expression differences in SCNT and IVF 2-cell embryos.

[3] = Sertoli donor cells (BDF1, male)
[4] = Sertoli donor cells (BDF1, male), E19.5
[5] = Sertoli donor cells (BDF1, male), E19.5, listed as Kdm4d
[6] = Sertoli donor cells (BDF1, male), E19.5, listed as Kdm4d WT
[7] = cumulus donor cells (BDF1, female)
[8] = cumulus donor cells (BDF1, female), E19.5

Kdm4d WT mRNA: in vitro transcribed full length mouse Kdm4d mRNA, encoding an H3K9me3-specific histone demethylase
Body weight at birth (g ± SD) [1, 3]: 1.48 ± 0.11 g | Placenta weight at birth (g ± SD) [1, 3]: 0.26 ± 0.10 g | No. of implanted [1, 4]: 59 | No. of pups [1, 4]: 8 | implanted (% per ET) [1, 5]: 64% | pups (% per ET) [1, 5]: 8.7% | implanted (% per ET) [1, 6]: 64.1% | pups (% per ET) [1, 6]: (8.7) % | Body weight at birth (g ± SD) [1, 7]: 1.60 ± 0.15 g | Placenta weight at birth (g ± SD) [1, 7]: 0.32 ± 0.03 g | No. of implanted [1, 8]: 75 | No. of pups [1, 8]: 9 | implanted (% per ET) [1, 8]: 63.0% | pups (% per ET) ([1]; cumulus donor cells (BDF1, female), E19.5, listed as Kdm4d): 7.6% | pups (% per ET) ([1]; cumulus donor cells (BDF1, female), E19.5, listed as Kdm4d WT): (7.6) % | rate of implantation relative to control SCNT embryos ([1]; cumulus donor cells, E19.5): 3 fold | growth and fertility of SCNT pups (in words) ([1]; mouse, in vivo): grew normally to adulthood and generated offspring by natural mating | reduction of H3K9me3 levels in SCNT embryos (in words) (H3K9me3): greatly reduced H3K9me3 levels | repression of major satellite repeats in 2-cell SCNT embryos (in words) [2]: completely restored | % of the 222 RRRs activated (FC >2) compared to control SCNT embryos ([2]; 2-cell SCNT embryos): 83% | SCNT-induced repression of class III retrotransposon elements such as MERVL (in words) ([2]; 2-cell SCNT embryos): partly relieved | number of the 222 RRRs activated (FC >2) ([2]; 2-cell SCNT embryos): 184 | total number of differentially expressed genes (FC >3) between SCNT and IVF 2-cell embryos ([2]; 1212 without injection): 475
